Residues, ends and D or L forms follow the SMILES beside them. *: point of attachment. Cbz = O=C(OCc1ccccc1)*
Assays:
[1] = tested on: scopolamine-induced amnesia; assay: step-down passive avoidance test, anti-amnestic activity on scopolamine-induced amnesia; assay type: in vivo, male rats of Wister strain; details: scopolamine 0.5 mg/kg i.p., retention 24 hours after acquisition, relative to scopolamine-treated group
Source text: A step-down passive avoidance test on rats was used as the method of assay for anti-amnestic activity to estimate the preventive effect of prolylendopeptidase inhibitors on scopolamine-induced amnesia. This method of assay involved application of electric shocks to animals upon their stepping down on a grid floor to see whether they have learned that such shocks can be avoided by staying on a platform. A passive avoidance test chamber used in this experiment was comprised of an electrifiable grid floor (20 cm in length and 22 cm in width) and a platform (20 cm in length, 15 cm in width and 5 cm in height) placed at the right back corner thereof.
5-Weeks-old male rats of Wister strain weighing 100-150 g (purchased from Japan Clea Co., Ltd.) were used in the test.
Each test compound used in the doses indicated in Tables 2-3 was dissolved or suspended in 4% gum arabic-containing distilled water (1 ml) and administered p.o. one hour before the commencement of acquisition trial. In addition, scopolamine hydrobromide dissolved in saline (0.5 ml) was intraperitoneally administered in a dose of 0.5 mg/kg 30 minutes before the acquisition trial to prepare experimental animal models of amnesia.
In the acquisition trial, the rat was placed on the platform in the test chamber and, when the animal stepped down on the grid floor, the electric current of 5.0 mA was immediately sent to the grid floor continuously until the animal went up on the platform If the rat having gone up on the platform stayed there for more than 30 seconds, the animal was regarded to have learned the situation and taken out of the test chamber. A total time of measurement in the acquisition trial was limited to 300 seconds as maximum, and the time elapsing until the rat learned the situation was measured. In order to avoid any significant difference in the rats, those which took more than 300 seconds for the learning were excluded from the experiment.
The retention trial was carried out 24 hours after the acquisition trial. In this trial, the rat was placed again on the platform in the test chamber, the time elapsing until the animal stepped down onto the grid floor (the step-down latency) was measured.
In each of these tables they are indicated as relative step-down latency, shown by each test compound-treated group in the retention trial, to step-down latency for scopolamine-treated group (i.e. test compound-treated group's step-down latency/scopolamine-treated group's step-down latency).

prolylendopeptidase = prolylendopeptidase (Elizabethkingia meningoseptica, UniProt P27028); assay: biochemical; assay type: biochemical; details: substrate 2.5 mM Z-glycyl-proline-β-naphthylamide; pH 7.0; 35° C. for 10 minutes; read-out: inhibition constant (Ki)
prolylendopeptidase, sequence (P27028 21-705): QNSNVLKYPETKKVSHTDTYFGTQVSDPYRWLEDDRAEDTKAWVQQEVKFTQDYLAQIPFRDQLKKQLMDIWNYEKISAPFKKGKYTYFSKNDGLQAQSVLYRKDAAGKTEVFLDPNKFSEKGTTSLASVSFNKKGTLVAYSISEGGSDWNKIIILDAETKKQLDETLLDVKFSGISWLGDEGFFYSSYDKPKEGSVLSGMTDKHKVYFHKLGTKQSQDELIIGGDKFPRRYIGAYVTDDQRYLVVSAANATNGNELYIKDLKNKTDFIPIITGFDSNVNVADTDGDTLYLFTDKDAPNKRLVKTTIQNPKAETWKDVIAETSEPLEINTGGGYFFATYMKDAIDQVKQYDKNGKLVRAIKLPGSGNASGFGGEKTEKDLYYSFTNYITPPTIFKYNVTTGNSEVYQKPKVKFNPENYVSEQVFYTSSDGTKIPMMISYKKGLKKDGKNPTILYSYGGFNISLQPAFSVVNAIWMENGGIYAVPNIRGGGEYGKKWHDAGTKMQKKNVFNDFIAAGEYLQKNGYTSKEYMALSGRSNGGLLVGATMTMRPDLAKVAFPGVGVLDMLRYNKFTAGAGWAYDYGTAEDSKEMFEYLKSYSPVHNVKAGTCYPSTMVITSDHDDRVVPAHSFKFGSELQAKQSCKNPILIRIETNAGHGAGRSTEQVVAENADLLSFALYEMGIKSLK
Method: The compounds of the invention obtained in the foregoing Examples were assayed for their prolylendopeptidase inhibition activity. This assay for prolylendopeptidase inhibition was carried out in accordance with the method of Yoshimoto and Tsuru (Yoshimoto, T. and Tsuru, D., Agr. Biol. Chem. Vol. 42, 2417, 1978). The corresponding number of test tubes to the number of the compounds to be tested were prepared and 2.5 mM Z-glycyl-proline-β-naphthylamide (0.25 ml), 0.1 M phosphate buffer (pH 7.0, 0.99 ml) and a solution of one of the peptides of the invention (0.1 ml) were placed in each test tube and warmed at 37° C. for 3 minutes. 0.1 ml of solution of propylendopeptidase (0.2 unit/ml) was added to each test tube. After reaction at 35° C. for 10 minutes, 1 M acetate buffer containing Triton X-100 (pH 4.0) was added to a final concentration of 10% and after the mixture was left to stand at room temperature for 15 minutes the absorbance (a) at 410 nm was measured.
The above-mentioned procedure was followed in the same manner but using buffers only in place of the solution of each compound of the invention, and the absorbance (b) was measured.

proline endopeptidase = details: prior art; cited from earlier work
[2] = prior art; cited from earlier work
[3] = Table 2, 5 mg/kg p.o., **p < 0.01 (Mann-Whitney)

Compound | Relative step-down latency in retention trial (mean ± S.E.) ([1]; Table 2, 1 mg/kg p.o.) | Relative step-down latency in retention trial (mean ± S.E.) [1, 3] | Relative step-down latency in retention trial (mean ± S.E.) ([1]; Table 2, 25 mg/kg p.o.) | Relative step-down latency in retention trial (mean ± S.E.) ([1]; Table 2, 50 mg/kg p.o.) | Relative step-down latency in retention trial (mean ± S.E.) ([1]; Table 2, 100 mg/kg p.o.) | Ki (prolylendopeptidase) | further results
CCOC(OCC)[C@@H]1CCCN1C(=O)[C@@H]1CCCN1C(=O)OCc1ccccc1 [Example 8, N-benzyloxycarbonyl-L-prolyl-L-prolinal diethyl acetal] | 2.0 ± 0.5 | 0.9 ± 0.2 | 1.2 ± 0.3 | 0.7 ± 0.3 | 0.6 ± 0.3 | 2.2 µM | –
O=C[C@@H]1CCCN1C(=O)[C@@H]1CCCN1C(=O)OCc1ccccc1 [ZPP, Benzyloxycarbonyl-L-prolyl-L-prolinal] (Cbz-Pro-Pro-aldehyde) | 2.8 ± 1.3 | 8.5 ± 1.6 | 1.4 ± 0.8 | 0.5 ± 0.1 | 1.3 ± 0.8 | – | inhibitory activity to proline endopeptidase (proline endopeptidase): inhibitory activity to proline endopeptidase; anti-amnestic action [2]: anti-amnestic action
CCOC(OCC)[C@@H]1CCCN1C(=O)[C@@H]1CCCN1C(=O)CCC(=O)O [Example 12, N-succinyl-L-prolyl-L-prolinal diethyl acetal] | – | – | – | – | – | 370 µM | –
CCOC(OCC)[C@@H]1CCCN1C(=O)[C@@H]1CCC(=O)N1C(=O)CCC(=O)O [Example 16, N-succinyl-L-pyroglutamyl-L-prolinal diethyl acetal] | – | – | – | – | – | 1000 µM | –
COc1ccc(C(=O)N2CCCC2=O)cc1 [aniracetam] | – | – | – | – | – | – | Relative step-down latency in retention trial (mean ± S.E.) ([1]; Table 3, 12.5 mg/kg p.o.): 1.1 ± 0.4; Relative step-down latency in retention trial (mean ± S.E.) ([1]; Table 3, 25 mg/kg p.o.): 1.6 ± 0.6; Relative step-down latency in retention trial (mean ± S.E.) ([1]; Table 3, 50 mg/kg p.o., *p < 0.05 (Mann-Whitney)): 2.3 ± 0.6; Relative step-down latency in retention trial (mean ± S.E.) ([1]; Table 3, 100 mg/kg p.o.): 0.7 ± 0.3
CCOC(OCC)[C@@H]1CCCN1C(=O)CN(C)C(=O)CCC(=O)O [Example 14, N-succinyl-sarcosyl-L-prolinal diethyl acetal] | – | – | – | – | – | 1000 µM | –

Reference: patent publication US5158970A, “Proline derivatives” (Kabushiki Kaisha Yakult Honsha, priority 1989, dated 1992)
